From patent US20240116946A1 (Gilead Sciences, Inc., priority 2022, published 2024) come the findings set out here.

Where two headings read alike, the source gives them in different places.

For assay [1], the target named is recombinant SARS-CoV-2 Main protease (Mpro) (Severe acute respiratory syndrome coronavirus 2 (2019-nCoV) (SARS-CoV-2), UniProt P0DTD1). The experiment in a line: Cov Mpro Biochemical IC50 Assay. To be noted: read-out: MPro IC50.
For a further assay, the system named is SARS-CoV-2-NLuc. The assay can be described thus: microbe, parasite or virus in culture. In kind it is cell-based, SARS Coronavirus 2.
The mark [2] stands for this setting: recombinant SARS-CoV-2 Mpro 7.5 nM, fluorogenic peptide substrate 40 μM.
Setting [3] is: Severe acute respiratory syndrome coronavirus, 48 h, read-out: MPro EC50.
[4] abbreviates: recombinant SARS-CoV-2 Mpro, fluorogenic peptide substrate.
Setting [5] is: Severe acute respiratory syndrome coronavirus, 48 h; read-out: MPro EC50.

As to `COc1cc(-c2cc3c(s2)c(=O)n(-c2cncc(Cl)c2C)c(=O)n3CCC#N)c(Cl)cc1F` [Example 927, 3-[6-(2-chloro-4-fluoro-5-methoxy-phenyl)-3-(5-chloro-4-methyl-3-pyridyl)-2,4-dioxo-thieno[3,2-d]pyrimidin-1-yl]propanenitrile], the IC50 – broadly, the point on the concentration scale where inhibition reaches its midpoint – in assay [1] (setting [2]) was 7.02 nM. Also, the EC50 (as a rule, the concentration giving half of the maximal effect) in the assay with SARS-CoV-2-NLuc (setting [3]) turned out to be 6.88 nM.
As for `Cc1cc2c(=O)n(-c3cncc4ccccc34)c(=O)[nH]c2cc1-c1ccccc1Cl` [Example 81], the IC50 in assay [1] (setting [4]) was 231 nM. Further, the EC50 in the assay on SARS-CoV-2-NLuc (setting [3]) turned out to be 184 nM.
On to `COc1ccc(Cl)c(-c2cc3[nH]c(=O)n(-c4cncc5cccnc45)c(=O)c3s2)c1` (single isomer, unassigned) [Example 467, 6-(2-chloro-5-methoxyphenyl)-3-(1,6-naphthyridin-8-yl)thieno[3,2-d]pyrimidine-2,4(1H,3H)-dione], for which, in assay [1] (setting [2]), the IC50 is 11.4 nM. Besides, the EC50 with SARS-CoV-2-NLuc (read-out: MPro EC50) was 38.1 nM.
`O=c1[nH]c2cc(-c3c(Cl)cccc3OCc3cscn3)ccc2c(=O)n1-c1cncc2ccccc12` [Example 86, 7-[2-chloro-6-(thiazol-4-ylmethoxy)phenyl]-3-(4-isoquinolyl)-1H-quinazoline-2,4-dione]: the IC50 in assay [1] (setting [4]) was 112 nM. For the same compound, in the assay on SARS-CoV-2-NLuc (read-out: MPro EC50), the EC50 worked out at 144 nM.
As to `NC(=O)c1ccc(-c2cccc(Cl)c2-c2ccc3c(=O)n(-c4cncc5ccccc45)c(=O)[nH]c3c2)cc1` [Example 149, 4-[3-chloro-2-[3-(4-isoquinolyl)-2,4-dioxo-1H-quinazolin-7-yl]phenyl]benzamide], the IC50 in assay [1] (setting [4]) was determined as 19.2 nM. In addition, the EC50 in the assay on SARS-CoV-2-NLuc (setting [3]) amounted to 40.2 nM.
`O=c1[nH]c2cc(-c3cccc4cccnc34)ccc2c(=O)n1-c1cncc2ccccc12` [Example 40]: the IC50 in assay [1] (setting [4]) was determined as 1310 nM. Also, the EC50 in the assay with SARS-CoV-2-NLuc (setting [5]) is 4910 nM.
As for `N#Cc1ccccc1-c1cc2[nH]c(=O)n(-c3cncc4ccccc34)c(=O)c2s1` [Example 530, 2-(3-(isoquinolin-4-yl)-2,4-dioxo-1,2,3,4-tetrahydrothieno[3,2-d]pyrimidin-6-yl)benzonitrile], in assay [1] (setting [2]), the IC50 amounted to 12 nM. The EC50 in the assay on SARS-CoV-2-NLuc (setting [3]) stood at 84.3 nM.
The matching figures for `Cc1cc(Cl)c(-c2cc3c(s2)c(=O)n(-c2cncc4cnn(C)c24)c(=O)n3CCC#N)cc1Cl` [Example 1024]: 9.7 nM and 35.4 nM.
For `COc1cc(-c2cc3c(s2)c(=O)n(-c2cncc(OC4CC4)c2)c(=O)n3CCC#N)c(Cl)cc1F` [Example 953] the same measures were 8.28 nM and 36.3 nM.
Turning to `COc1cnc(C#N)c(-c2ccc3c(=O)n(-c4cncc5ccccc45)c(=O)[nH]c3c2)c1` [Example 333], the IC50 in assay [1] (setting [4]) was 149 nM. The EC50 with SARS-CoV-2-NLuc (setting [3]) is 765 nM.
For the compound `Cn1c(C(F)(F)F)nc2cncc(-n3c(=O)c4sc(-c5ccccc5C#N)cc4n(CCC#N)c3=O)c21` [Example 858], the IC50 in assay [1] (setting [2]) worked out at 263 nM. Also, the EC50 in the assay with SARS-CoV-2-NLuc (setting [3]) stood at 741 nM.
For `COc1cc(Cl)c(-c2cc3c(s2)c(=O)n(-c2cncc4cnn(C)c24)c(=O)n3CCC#N)cc1Cl` [Example 791] the same measures were 6.98 nM and 9.04 nM.
With `O=c1[nH]c2cc(-c3c(Cl)cccc3-c3ccc4c(c3)CCS(=O)(=O)N4)ccc2c(=O)n1-c1cncc2ccccc12` [Example 327], the IC50 in assay [1] (setting [4]) worked out at 13.3 nM. The EC50 in the assay with SARS-CoV-2-NLuc (setting [3]) was 96.3 nM.
The matching figures for `COc1cc(-c2cc3[nH]c(=O)n(-c4cncc5ccccc45)c(=O)c3cc2F)c(C#N)cc1F` [Example 202, 5-fluoro-2-[6-fluoro-3-(4-isoquinolyl)-2,4-dioxo-1H-quinazolin-7-yl]-4-methoxy-benzonitrile]: 13.6 nM and 18.4 nM.
Take `COc1ccc(Cl)c(-c2cc3[nH]c(=O)n(-c4cncc5c(OC)cccc45)c(=O)c3s2)c1` [Example 627]: in assay [1] (setting [2]), the IC50 was 1970 nM. Besides, in the assay with SARS-CoV-2-NLuc (setting [3]), the EC50 is 4770 nM.
`Cc1cncc(-n2c(=O)c3sc(-c4ccccc4Cl)cc3n(CCC#N)c2=O)n1` [Example 833]: in assay [1] (setting [2]), the IC50 came to 16 nM. For the same compound, the EC50 in the assay with SARS-CoV-2-NLuc (setting [3]) was found to be 49.7 nM.
Take `COc1cc(-c2cc3c(s2)c(=O)n(-c2cncc4cnn(C)c24)c(=O)n3CCC#N)c(Cl)cc1F` [Example 642, 3-[6-(2-chloro-4-fluoro-5-methoxy-phenyl)-3-(1-methylpyrazolo[4,3-c]pyridin-7-yl)-2,4-dioxo-thieno[3,2-d]pyrimidin-1-yl]propanenitrile]: in assay [1] (setting [2]), the IC50 was determined as 8.54 nM. The EC50 with SARS-CoV-2-NLuc (setting [5]) came out at 4.59 nM.
`COc1cc(-c2cc3c(s2)c(=O)n(-c2cncc4nc(C(F)(F)F)n(C)c24)c(=O)n3CCC#N)c(Cl)cc1F` (single isomer, unassigned) [Example 973, 3-(6-(2-chloro-4-fluoro-5-methoxyphenyl)-3-(1-methyl-2-(trifluoromethyl)-1H-imidazo[4,5-c]pyridin-7-yl)-2,4-dioxo-3,4-dihydrothieno[3,2-d]pyrimidin-1(2H)-yl)propanenitrile]: the IC50 in assay [1] (setting [2]) amounted to 6.68 nM. Moreover, the EC50 in the assay with SARS-CoV-2-NLuc (read-out: MPro EC50) turned out to be 14.7 nM.
With `O=c1[nH]c2cc(-c3ccccc3)c(F)cc2c(=O)n1-c1cncc2ccccc12` [Example 38], the 50% inhibitory concentration (IC50) in assay [1] (setting [4]) was greater than 100000 nM. The EC50 in the assay with SARS-CoV-2-NLuc (setting [5]) was 4910 nM.
Consider `COCCn1cc2cncc(-n3c(=O)[nH]c4cc(-c5cc(OC)c(F)cc5Cl)sc4c3=O)c2n1` [Example 735], for which the IC50 in assay [1] (setting [2]) stood at 6.65 nM. Also, the EC50 with SARS-CoV-2-NLuc (setting [3]) turned out to be 71 nM.
As for `COc1cc(-c2cc3c(s2)c(=O)n(-c2cncc4cccnc24)c(=O)n3CCC#N)c(Cl)cc1F` (single isomer, unassigned) [Example 1037, 3-(6-(2-chloro-4-fluoro-5-methoxyphenyl)-3-(1,6-naphthyridin-8-yl)-2,4-dioxo-3,4-dihydrothieno[3,2-d]pyrimidin-1(2H)-yl)propanenitrile], the IC50 in assay [1] (setting [2]) turned out to be 544 nM. Also, in the assay with SARS-CoV-2-NLuc (read-out: MPro EC50), the 50% effective concentration (EC50) was found to be 362 nM.
`N#CCCn1c(=O)n(-c2cncc(C3CC4(COC4)C3)c2)c(=O)c2sc(-c3ccccc3Cl)cc21` [Example 1064, 3-(3-(5-(2-oxaspiro[3.3]heptan-6-yl)pyridin-3-yl)-6-(2-chlorophenyl)-2,4-dioxo-3,4-dihydrothieno[3,2-d]pyrimidin-1(2H)-yl)propanenitrile]: in assay [1] (setting [2]), the IC50 worked out at 24 nM. In addition, the EC50 in the assay with SARS-CoV-2-NLuc (setting [5]) is 713 nM.
`COc1ccc(OC)c(-c2ccc3c(=O)n(-c4cncc5ccccc45)c(=O)[nH]c3c2)c1` [Example 210]: the IC50 in assay [1] (setting [4]) worked out at 2830 nM. In addition, the EC50 with SARS-CoV-2-NLuc (setting [3]) was 2980 nM.
With `COc1cc(-c2cc3c(s2)c(=O)n(-c2cncc(OC)c2C)c(=O)n3CCC#N)c(Cl)cc1F` [Example 871], the IC50 in assay [1] (setting [2]) was found to be 75.3 nM. Also, in the assay on SARS-CoV-2-NLuc (setting [3]), the EC50 came out at 220 nM.
With `COc1cc(-c2cc3[nH]c(=O)n(-c4nncc5ccccc45)c(=O)c3s2)c(Cl)cc1F` [Example 744], the IC50 in assay [1] (setting [2]) was 21.7 nM. Further, in the assay with SARS-CoV-2-NLuc (setting [5]), the EC50 was determined as 85 nM.
Consider `O=C1NCCc2c1cccc2-c1cccc(Cl)c1-c1ccc2c(=O)n(-c3cncc4ccccc34)c(=O)[nH]c2c1` [Example 194], for which the IC50 in assay [1] (setting [4]) was less than 2.54 nM. For the same compound, the half-maximal effective concentration (EC50) in the assay on SARS-CoV-2-NLuc (setting [3]) amounted to 20.6 nM.
Regarding `COc1ccc(C#N)c(-c2cc3[nH]c(=O)n(-c4cncc5cccc(F)c45)c(=O)c3s2)c1` [Example 446], the IC50 in assay [1] (setting [2]) is 8.74 nM. In the assay with SARS-CoV-2-NLuc (setting [3]), the EC50 came to 25.5 nM.
In the case of `O=c1[nH]c2cc(-c3c(Cl)cccc3-c3cnn4c3COCC4)ccc2c(=O)n1-c1cncc2ccccc12` [Example 305], the IC50 in assay [1] (setting [4]) worked out at 8.8 nM. Further, the EC50 in the assay with SARS-CoV-2-NLuc (setting [3]) came out at 12.8 nM.
In the case of `COc1cc(-c2cc3c(s2)c(=O)n(-c2cnccc2C(F)(F)F)c(=O)n3CCC#N)c(Cl)cc1F` [Example 861], the IC50 in assay [1] (setting [2]) was found to be 35.8 nM. Further, in the assay with SARS-CoV-2-NLuc (setting [3]), the EC50 is 68.9 nM.
The matching figures for `COc1cc(-c2cc3c(s2)c(=O)n(-c2cncc4nnn(C5CC5)c24)c(=O)n3CCC#N)c(Cl)cc1F` [Example 939]: 11 nM and 30.3 nM.
Take `O=c1[nH]c2cc(-c3c(Cl)cccc3-c3ccc4c(c3)OC(F)(F)O4)ccc2c(=O)n1-c1cncc2ccccc12` [Example 357]: the IC50 in assay [1] (setting [4]) was found to be 373 nM. Further, the half-maximal effective concentration (EC50) in the assay with SARS-CoV-2-NLuc (setting [3]) was found to be 68.1 nM.
For the compound `Cc1cc(-c2cc3c(s2)c(=O)n(-c2cncc4cnn(C)c24)c(=O)n3CCC#N)c(C#N)cc1F` [Example 779], the 50% inhibitory concentration (IC50) in assay [1] (setting [2]) was determined as 24.1 nM. Besides, the EC50 with SARS-CoV-2-NLuc (setting [3]) was 67.3 nM.
`COc1cc(-c2cc3c(s2)c(=O)n(-c2cncc(C#CC(C)(C)O)c2)c(=O)n3CCC#N)c(Cl)cc1F` [Example 1038, 3-(6-(2-chloro-4-fluoro-5-methoxyphenyl)-3-(5-(3-hydroxy-3-methylbut-1-yn-1-yl)pyridin-3-yl)-2,4-dioxo-3,4-dihydrothieno[3,2-d]pyrimidin-1(2H)-yl)propanenitrile]: the IC50 in assay [1] (setting [2]) is 1.28 nM. For the same compound, the EC50 in the assay with SARS-CoV-2-NLuc (setting [5]) was 5.69 nM.
With `COc1cc(-c2cc3c(s2)c(=O)n(-c2cncc4nccn24)c(=O)n3CCC#N)c(Cl)cc1F` [Example 1000], the IC50 in assay [1] (setting [2]) turned out to be 10.6 nM. Moreover, the EC50 with SARS-CoV-2-NLuc (setting [3]) was 20.1 nM.
As to `COc1cc(-c2cc3[nH]c(=O)n(-c4cncc5ccn(C)c45)c(=O)c3s2)c(Cl)cc1F` (single isomer, unassigned) [Example 958, 6-(2-chloro-4-fluoro-5-methoxyphenyl)-3-(1-methyl-1H-pyrrolo[3,2-c]pyridin-7-yl)thieno[3,2-d]pyrimidine-2,4(1H,3H)-dione], the IC50 in assay [1] (setting [2]) came out at 11.2 nM. Further, the EC50 with SARS-CoV-2-NLuc (read-out: MPro EC50) came out at 13.3 nM.
Take `N#CCCn1c(=O)n(-c2cnccn2)c(=O)c2sc(-c3ccc(F)cc3C#N)cc21` [Example 829]: the IC50 in assay [1] (setting [2]) stood at 420 nM. Also, the EC50 in the assay on SARS-CoV-2-NLuc (setting [5]) is greater than 1000 nM.
Take `Cn1cc(-c2cccc(Cl)c2-c2ccc3c(=O)n(-c4cncc5ccccc45)c(=O)[nH]c3c2)c(C(F)(F)F)n1` [Example 265]: the half-inhibitory concentration (IC50) in assay [1] (setting [4]) was 25.9 nM. Also, the EC50 in the assay on SARS-CoV-2-NLuc (setting [3]) came out at 17.4 nM.
For `O=c1[nH]c2cc(-c3ccccc3Cl)sc2c(=O)n1-c1cncc2ccc(F)cc12` [Example 622, 6-(2-chlorophenyl)-3-(6-fluoroisoquinolin-4-yl)thieno[3,2-d]pyrimidine-2,4(1H,3H)-dione], the IC50 in assay [1] (setting [2]) is 15.4 nM. In the assay on SARS-CoV-2-NLuc (setting [5]), the EC50 came to 39.3 nM.
